# Earlier results in patent publication US20070010426A1, “Composition for preventing and treating cardiovascular disorders” (Maxluck Biotechnology Corp., priority 2005, published 2007).
# Test system: obese mouse
substance,measurement,value
chromium picolinate,Effect on blood lipids,reduce the blood lipids
